Test results published in patent US10544143B2, “4-azaindole compounds” (BRISTOL-MYERS SQUIBB COMPANY, priority 2017, dated 2020).

What was measured:
human TLR8 = human TLR8 (Homo sapiens (Human), UniProt Q9NR97); experiment: TLR8 inhibition reporter assay (HEK-Blue SEAP); conditions: read-out: TLR8 IC50; HEK-Blue cells overexpressing human TLR8, R848 15.9 μM stimulation, SEAP reporter;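 note: SEAP driven by IFN-β minimal promoter carrying NF-κB and AP-1 sites, compounds dosed 0.05 nM to 50 µM for 22 h, inhibition scaled between agonist-plus-DMSO and reference-inhibitor wells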
human TLR9 = human TLR9 (Homo sapiens (Human), UniProt Q9NR96); experiment: TLR9 inhibition reporter assay (HEK-Blue SEAP); conditions: read-out: TLR9 IC50; HEK-Blue cells overexpressing human TLR9, ODN2006 5 nM stimulation, SEAP reporter;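 note: SEAP driven by an IFN-β minimal promoter with NF-κB and AP-1 sites, read after 22 h, compounds dosed 0.05 nM–50 µM, inhibition scaled between agonist plus DMSO and reference-inhibitor wells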
human TLR7 = human TLR7 (Homo sapiens (Human), UniProt Q9NYK1); experiment: TLR7 inhibition reporter assay (HEK-Blue SEAP); assay type: cell-based; conditions: HEK-Blue cells overexpressing human TLR7, gardiquimod 7.5 μM stimulation, SEAP reporter
Chain of human TLR7 (Q9NYK1 27-1049): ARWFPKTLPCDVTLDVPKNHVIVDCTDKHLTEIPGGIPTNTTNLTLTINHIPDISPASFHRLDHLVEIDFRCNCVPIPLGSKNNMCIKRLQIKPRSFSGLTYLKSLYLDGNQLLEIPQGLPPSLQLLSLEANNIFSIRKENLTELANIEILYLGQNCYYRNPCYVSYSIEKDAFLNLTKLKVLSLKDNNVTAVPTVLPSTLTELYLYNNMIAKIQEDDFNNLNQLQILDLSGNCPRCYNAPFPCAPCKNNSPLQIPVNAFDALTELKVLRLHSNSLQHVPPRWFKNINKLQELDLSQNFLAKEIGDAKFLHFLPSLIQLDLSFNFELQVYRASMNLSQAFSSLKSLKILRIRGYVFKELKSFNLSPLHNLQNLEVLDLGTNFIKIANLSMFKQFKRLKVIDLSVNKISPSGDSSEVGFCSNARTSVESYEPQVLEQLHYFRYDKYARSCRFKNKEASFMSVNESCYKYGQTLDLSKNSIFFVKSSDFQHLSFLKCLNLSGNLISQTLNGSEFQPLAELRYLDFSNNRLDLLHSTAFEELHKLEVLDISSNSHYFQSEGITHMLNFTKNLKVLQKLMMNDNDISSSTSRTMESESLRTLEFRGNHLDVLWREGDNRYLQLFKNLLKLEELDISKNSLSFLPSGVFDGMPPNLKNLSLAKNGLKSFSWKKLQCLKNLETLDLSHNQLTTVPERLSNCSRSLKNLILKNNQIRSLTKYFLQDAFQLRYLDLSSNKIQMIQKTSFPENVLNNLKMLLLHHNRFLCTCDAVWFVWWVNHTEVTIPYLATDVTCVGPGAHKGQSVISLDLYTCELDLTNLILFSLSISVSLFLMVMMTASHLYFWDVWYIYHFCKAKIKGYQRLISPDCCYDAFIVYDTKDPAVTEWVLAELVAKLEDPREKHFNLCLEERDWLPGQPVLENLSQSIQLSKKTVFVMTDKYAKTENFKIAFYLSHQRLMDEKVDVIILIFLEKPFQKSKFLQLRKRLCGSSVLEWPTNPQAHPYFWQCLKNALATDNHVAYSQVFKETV

Chain of human TLR9 (Q9NR96 26-1032): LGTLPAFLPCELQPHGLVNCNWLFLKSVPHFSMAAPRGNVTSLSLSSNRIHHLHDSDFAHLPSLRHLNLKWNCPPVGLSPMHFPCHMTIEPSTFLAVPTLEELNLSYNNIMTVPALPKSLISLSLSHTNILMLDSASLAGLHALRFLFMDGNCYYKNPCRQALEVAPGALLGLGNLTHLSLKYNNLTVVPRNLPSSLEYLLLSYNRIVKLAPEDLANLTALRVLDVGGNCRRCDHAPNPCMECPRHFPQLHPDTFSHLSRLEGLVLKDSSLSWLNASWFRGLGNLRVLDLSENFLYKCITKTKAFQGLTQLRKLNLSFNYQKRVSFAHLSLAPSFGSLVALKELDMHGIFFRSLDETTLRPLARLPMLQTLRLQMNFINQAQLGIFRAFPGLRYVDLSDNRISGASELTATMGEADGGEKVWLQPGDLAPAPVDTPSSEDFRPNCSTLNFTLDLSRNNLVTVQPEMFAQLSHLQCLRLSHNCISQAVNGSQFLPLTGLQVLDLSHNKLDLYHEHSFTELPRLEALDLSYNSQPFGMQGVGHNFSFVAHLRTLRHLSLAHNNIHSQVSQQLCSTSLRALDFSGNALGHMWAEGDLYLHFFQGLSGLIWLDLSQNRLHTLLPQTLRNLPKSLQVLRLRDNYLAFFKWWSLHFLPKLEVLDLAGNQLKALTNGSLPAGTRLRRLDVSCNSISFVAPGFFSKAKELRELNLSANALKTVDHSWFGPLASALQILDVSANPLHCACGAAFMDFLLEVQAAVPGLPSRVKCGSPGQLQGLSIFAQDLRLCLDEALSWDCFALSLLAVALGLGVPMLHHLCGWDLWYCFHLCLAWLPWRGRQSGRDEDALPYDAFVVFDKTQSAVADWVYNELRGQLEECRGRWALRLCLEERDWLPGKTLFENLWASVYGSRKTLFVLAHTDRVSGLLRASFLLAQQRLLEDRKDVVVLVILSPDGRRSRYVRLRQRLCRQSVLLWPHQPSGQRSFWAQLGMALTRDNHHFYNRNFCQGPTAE
Chain of human TLR8 (Q9NR97 27-1041): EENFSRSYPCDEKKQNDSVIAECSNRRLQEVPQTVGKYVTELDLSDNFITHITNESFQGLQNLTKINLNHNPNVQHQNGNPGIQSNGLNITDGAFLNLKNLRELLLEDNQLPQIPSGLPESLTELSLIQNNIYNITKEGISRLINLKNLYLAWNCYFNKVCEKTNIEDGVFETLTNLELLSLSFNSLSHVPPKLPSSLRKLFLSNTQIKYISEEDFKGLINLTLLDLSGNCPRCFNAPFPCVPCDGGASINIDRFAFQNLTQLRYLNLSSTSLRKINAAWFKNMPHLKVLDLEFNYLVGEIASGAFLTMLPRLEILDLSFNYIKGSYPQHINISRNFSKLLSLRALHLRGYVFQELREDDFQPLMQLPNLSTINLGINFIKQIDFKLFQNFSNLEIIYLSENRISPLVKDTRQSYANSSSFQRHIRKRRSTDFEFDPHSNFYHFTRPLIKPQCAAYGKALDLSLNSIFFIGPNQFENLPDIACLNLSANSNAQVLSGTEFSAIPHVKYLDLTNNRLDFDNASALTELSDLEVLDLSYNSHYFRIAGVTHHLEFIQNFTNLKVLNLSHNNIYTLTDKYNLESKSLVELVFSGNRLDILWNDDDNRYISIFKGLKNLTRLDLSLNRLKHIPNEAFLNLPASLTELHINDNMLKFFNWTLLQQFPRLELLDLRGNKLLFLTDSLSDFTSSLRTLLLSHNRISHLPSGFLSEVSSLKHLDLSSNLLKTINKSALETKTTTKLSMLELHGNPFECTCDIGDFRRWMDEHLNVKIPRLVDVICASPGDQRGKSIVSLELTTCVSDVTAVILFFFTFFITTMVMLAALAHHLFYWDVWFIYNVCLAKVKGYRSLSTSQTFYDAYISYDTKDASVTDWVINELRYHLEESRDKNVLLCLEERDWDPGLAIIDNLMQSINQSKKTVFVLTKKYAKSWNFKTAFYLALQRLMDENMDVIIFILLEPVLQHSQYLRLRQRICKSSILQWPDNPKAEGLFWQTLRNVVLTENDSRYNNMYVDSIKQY

IC50 (human TLR8) [nM]	IC50 (human TLR9) [nM]	IC50 (human TLR7) [nM]	Structure (SMILES)
0.23	1990	0.62	CC(C)c1c(-c2cn(C)c3ncccc23)[nH]c2ccc(N3CCC(NCCS(C)(=O)=O)CC3)nc12 [Example 53]
2.8	10400	2.9	CC(C)c1c(-c2cn(C)c3ncccc23)[nH]c2ccc(N3CCC(N(CC(=O)N(C)C)CC(=O)N(C)C)CC3)nc12 [Example 54]
0.39	3340	2.1	Cc1c(-c2[nH]c3ccc(N4CCC(N(C)C5CCOCC5)CC4)nc3c2C(C)C)cn2ncnc2c1C [Example 55]
1.1	6340	2	Cc1c(-c2[nH]c3ccc(N4CCC(NCc5csnn5)CC4)nc3c2C(C)C)cn2ncnc2c1C [Example 56]
1.3	5070	7.4	Cc1c(-c2[nH]c3ccc(N4CCC(NC5CCC5)CC4)nc3c2C(C)C)cn2ncnc2c1C [Example 57]
0.72	1970	1.3	Cc1c(-c2[nH]c3ccc(N4CCC(N(C)CC5CC5)CC4)nc3c2C(C)C)cn2ncnc2c1C [Example 58]
1.1	2380	1.3	Cc1c(-c2[nH]c3ccc(N4CCC(N(C)C5CCC5)CC4)nc3c2C(C)C)cn2ncnc2c1C [Example 59]
5.9	20200	5.6	Cc1c(-c2[nH]c3ccc(N4CCC(N(C)Cc5ncccn5)CC4)nc3c2C(C)C)cn2ncnc2c1C [Example 60]
1.8	2410	4.4	COc1ncnc(OC)c1CN(C)C1CCN(c2ccc3[nH]c(-c4cn5ncnc5c(C)c4C)c(C(C)C)c3n2)CC1 [Example 61]
1.5	11500	3.8	Cc1c(-c2[nH]c3ccc(N4CCC(N(C)Cc5ccnn5C)CC4)nc3c2C(C)C)cn2ncnc2c1C [Example 62]
4	42400	7.4	Cc1c(-c2[nH]c3ccc(N4CCC(N(C)Cc5ncnn5C)CC4)nc3c2C(C)C)cn2ncnc2c1C [Example 63]
1.6	5080	3.8	Cc1ncc(CN(C)C2CCN(c3ccc4[nH]c(-c5cn6ncnc6c(C)c5C)c(C(C)C)c4n3)CC2)cn1 [Example 64]
1.3	25100	1.9	Cc1c(-c2[nH]c3ccc(N4CCC(N(C)C5COC5)CC4)nc3c2C(C)C)cn2ncnc2c1C [Example 65]
0.98	3870	1.4	CCN(C)C1CCN(c2ccc3[nH]c(-c4cn5ncnc5c(C)c4C)c(C(C)C)c3n2)CC1 [Example 66]
0.42	963	0.98	COc1ncc(CN(C)C2CCN(c3ccc4[nH]c(-c5cn6ncnc6c(C)c5C)c(C(C)C)c4n3)CC2)cn1 [Example 67]
0.79	6300	1.4	Cc1c(-c2[nH]c3ccc(N4CCC(N(C)Cc5cn(C)nn5)CC4)nc3c2C(C)C)cn2ncnc2c1C [Example 68]
1310	25800	1310	COc1ncnc(OC)c1CNC1CCN(c2ccc3[nH]c(-c4cn5ncnc5c(C)c4C)c(C(C)C)c3n2)CC1 [Example 69]
1.2	2970	2.3	CCN(CC)C1CCN(c2ccc3[nH]c(-c4cn5ncnc5c(C)c4C)c(C(C)C)c3n2)CC1 [Example 70]
31	3900	99	COc1ncnc(OC)c1CN(Cc1c(OC)ncnc1OC)C1CCN(c2ccc3[nH]c(-c4cn5ncnc5c(C)c4C)c(C(C)C)c3n2)CC1 [Example 71]

IC50 (human TLR8) [nM]	IC50 (human TLR9) [nM]	IC50 (human TLR7) [nM]	Structure (SMILES)
0.9	3420	2.9	COc1ncc(CNC2CCN(c3ccc4[nH]c(-c5cn6ncnc6c(C)c5C)c(C(C)C)c4n3)CC2)cn1 [Example 72]
5.7	24900	29	Cc1c(-c2[nH]c3ccc(N4CCC(N(Cc5cn(C)nn5)Cc5cn(C)nn5)CC4)nc3c2C(C)C)cn2ncnc2c1C [Example 73]
2560	> 50000	2470	Cc1nccc(CN(Cc2ccnc(C)n2)C2CCN(c3ccc4[nH]c(-c5cn6ncnc6c(C)c5C)c(C(C)C)c4n3)CC2)n1 [Example 74]
9.8	> 50000	18	COc1ncc(CN(Cc2cnc(OC)nc2)C2CCN(c3ccc4[nH]c(-c5cn6ncnc6c(C)c5C)c(C(C)C)c4n3)CC2)cn1 [Example 75]
15	> 50000	34	Cc1c(-c2[nH]c3ccc(N4CCC(N(Cc5ncnn5C)Cc5ncnn5C)CC4)nc3c2C(C)C)cn2ncnc2c1C [Example 76]
2	11600	4.8	Cc1c(-c2[nH]c3ccc(N4CCC(N(C)Cc5csnn5)CC4)nc3c2C(C)C)cn2ncnc2c1C [Example 77]
10	3170	3.7	Cc1c(-c2[nH]c3ccc(N4CCC(N(C)Cc5ncccn5)CC4)nc3c2C(C)C)cn2ncnc2c1C [Example 78]
355	9720	373	CC(C)c1c(-c2cc(CO)c3ncnn3c2)[nH]c2ccc(N3CCC(N)CC3)nc12 [Example 79]
1.6	4560	1.3	CC(C)c1c(-c2cc(CO)c3ncnn3c2)[nH]c2ccc(N3CCC(NC4CCOCC4)CC3)nc12 [Example 80]
0.95	20100	1.3	CC(C)c1c(-c2cc(CO)c3ncnn3c2)[nH]c2ccc(N3CCC(NC4COC4)CC3)nc12 [Example 81]
0.41	6380	0.77	CC(C)c1c(-c2cc(CO)c3ncnn3c2)[nH]c2ccc(N3CCC(NCC4(C)COC4)CC3)nc12 [Example 82]
6.9	5440	3.6	CC(C)c1c(-c2cc(CO)c3ncnn3c2)[nH]c2ccc(N3CCC(NCC#N)CC3)nc12 [Example 83]
> 3120	> 50000	2200	CC(C)c1c(-c2cc(CO)c3ncnn3c2)[nH]c2ccc(N3CCC(NCC(=O)N(C)C)CC3)nc12 [Example 84]
5.8	5180	1.8	CC(C)c1c(-c2cc(CO)c3ncnn3c2)[nH]c2ccc(N3CCC(NCC(=O)N(C)C)CC3)nc12 [Example 85]
2.9	> 50000	7.5	Cc1c(-c2[nH]c3ccc(N4CCCC(NC5COC5)C4)nc3c2C(C)C)cn2ncnc2c1C (stereo not drawn) [Example 86]
0.58	> 50000	3.5	Cc1c(-c2[nH]c3ccc(N4CCCC(NCC5(S(C)(=O)=O)CC5)C4)nc3c2C(C)C)cn2ncnc2c1C (stereo not drawn) [Example 87]
91	3600	68	Cc1cc(-c2[nH]c3ccc(N4CCNCC4)nc3c2C(C)C)cn2ncnc12 [Example 88]
0.59	3260	0.51	COc1cc(-c2[nH]c3ccc(N4CCNCC4)nc3c2C(C)C)cn2ncnc12 [Example 89]
4.2	5000	0.57	COc1cc(-c2[nH]c3ccc(N4CCN(C(=O)CN(C)C)CC4)nc3c2C(C)C)cn2ncnc12 [Example 90]
